Patent publication US20160296606A1, “Cellular Factor-Containing Solution Compositions for the Treatment of Rhinovirus Infection and Symptoms” (Noveome Biotherapeutics, Inc., priority 2015, published 2016)
Structures can show the parent of a compound that is named as a salt.

How the values were obtained:
[1] = system: vascular permeability (histamine-induced); experiment: Evans Blue assay of vascular permeability, histamine with ACCS or CPM (Example 6); format: in vivo, rats (Sprague-Dawley); details: 198 μg total protein ACCS or 50 μg CPM
Protocol: Method: […] The Evan's Blue dye binds to albumin and other plasma proteins present in the blood and circulates throughout the animal's entire vascular system. Increased vascular permeability results in extravasation from blood vessels and capillaries of the Evans Blue dye bound to plasma protein. […] After approximately 20 min, the animals were sacrificed, and an area of skin that included the entire injection site was removed with punch biopsy.

[2] = system: vascular permeability (histamine-induced); experiment: Miles assay, Evans Blue dye extravasation after intradermal injection (Example 5); format: in vivo, rat; details: 1 μg histamine alone intradermally (inducer of vascular permeability)
Protocol: Method: One hundred μL of 5% Evans Blue Dye was administered intravenously to an approximately 260 gram male rat via a jugular vein catheter. The Evans Blue dye binds to albumin and other proteins present in the blood and circulates throughout the animal's entire vascular system. One hundred μL of various test articles were then injected intradermally on the flank of the animal forming a small vesicular bleb of the injected article under on the skin surface. Changes in local vascular permeability were observed by the development of a blue spot corresponding to the Evans Blue bound protein extravasate at the injection site. Results were recorded qualitatively through photograph. The changes in Evans Blue Dye extravasation was quantitatively measured by the excision of the blue skin sample after animal sacrifice and placing the excised skin sample in 1 mL of formamide in order to extract the dye. The dye was extracted over 48 hours at 60° C. The extracted dye was then read on a plate reader for absorbance measurement at 630 nm.
The local extravasation of protein-bound Evans Blue Dye at the site of injection is correlated with the increase in vascular permeability. […] Saline and ACCS were also injected alone to serve as negative controls.

[3] = system: irritant (TPA) skin inflammation; experiment: Intralesional injection in irritant TPA skin (ear) inflammation in mice; format: in vivo
Protocol: Method: Intralesional injection into the ear was given once daily to the following groups: 1. TPA+intralesional control; 2. TPA+intralesional ACCS; 3. TPA+intralesional kenalog (10 mg/ml) (a potent intralesional corticosteroid); 4. ACCS intralesional injection alone; 5. Saline sham injections to the normal untreated ear. The endpoints for the study were ear thickness and ear weight at the end of the experiment. The thicker the ear and the increased weight gain correlates with the degree of inflammation.

In the case of `CN(C)CCC(c1ccc(Cl)cc1)c1ccccn1` (centres unmarked) [CPM, chlorpheniramine maleate], the “ABS 630 nm/μg tissue” value ([1]; histamine dose 0.05 μg intradermal) is reported as 0.07 ABS 630 nm/μg tissue, the “ABS 630 nm/μg tissue” value ([1]; histamine dose 0.5 μg intradermal) is reported as 0.10 ABS 630 nm/μg tissue and the “ABS 630 nm/μg tissue” value ([1]; histamine dose 1 μg intradermal) is reported as 0.10 ABS 630 nm/μg tissue. The “ABS 630 nm/μg tissue” value ([1]; histamine dose 3 μg intradermal) was 0.11 ABS 630 nm/μg tissue.
With `NCCc1c[nH]cn1` [histamine] the “OD 630 absorbance of extracted Evans Blue dye from tissue samples” value [2] was 0.495 OD units.
`CC1(C)O[C@@H]2C[C@H]3[C@@H]4CCC5=CC(=O)C=C[C@]5(C)[C@@]4(F)[C@@H](O)C[C@]3(C)[C@]2(C(=O)CO)O1` [kenalog] was tested, and the injection site finding ([3]; intralesional injection 10 mg/ml into mouse ear) was “induced a hematoma at the site of injection”, the “inflammation induced by TPA (ear thickness)” value ([3]; intralesional injection into the ear once daily, vs TPA+control) was “not a substantial difference in ear thickness” and the ear weight ([3]; intralesional injection once daily, compared with TPA+control) was “no difference in ear weight”.
